According to EP3349734B1, “USE OF SOLUBLE AND INSOLUBLE FRACTIONS OF A CYCLODEXTRIN POLYMER AND OF MIXTURES THEREOF AS AN EXCIPIENT IN A TABLET” (Université de Lille, priority 2015, dated 2017):

Tests used:
Assay type in all cases: physicochemical
[1] = Hygroscopicity: water vapour sorption/desorption isotherm (TGA Q5000 SA, 25°C, up to 98% RH); settings: up to 98% relative humidity
Experimental: Les mesures d'absorption et de désorption d'eau des polymères ont été réalisées à l'aide d'un analyseur thermogravimétrique SA Q5000 de TA Instruments contenant une microbalance dans lequel des creusets contenant l'échantillon et la référence ont été enfermés dans une chambre à humidité et température contrôlées. La température dans le Q5000 SA a été contrôlée par des éléments Peltier. Un gaz sec de N2 (200 mL/min) a été divisé en deux parties, dont une partie a été humidifiée par passage dans une chambre saturée d'eau. L'humidité relative souhaitée (RH) pour les mesures peut ainsi être obtenue par mélange des proportions appropriées (régulées par les contrôleurs de débit massique) de flux sec et humide.
La mesure de l'isotherme standard est composée d'un certain nombre d'étapes. Premièrement, l'échantillon a été séché à 60°C et 0% d'humidité relative pendant un temps déterminé jusqu'à ce que la variation de poids soit stabilisée à moins de 0,05%. Dans un second temps, la température a été abaissée à 25°C. L'humidité a ensuite été augmentée progressivement (par pas de 2% d'humidité relative) à un maximum de 98% d'humidité relative. La variation de poids de l'échantillon a été stabilisée après chaque étape jusqu'à ce qu'elle soit inférieure à 0,05%. L'isotherme de désorption de l'eau a également été mesurée. […]

[2] = Phase-solubility diagram of ibuprofène with cyclodextrins or soluble polymer fractions; settings: calculated from slope and So of the solubility diagram
Experimental: (§1) Les diagrammes de solubilité de plusieurs principes actifs ont été effectués en présence de cyclodextrines et de fractions solubles de polymères de cyclodextrine mentionnés à l'exemple 1.
(§2) Des solutions de concentration croissante de cyclodextrines et fractions solubles de polymères de cyclodextrine ont été préparées dans de l'eau ultrapure [0-70 g/L]. 10 mL de chacune des solutions ont été mis en présence d'un excès du principe actif (20 mg) sous agitation pendant 24 heures à température ambiante. Les solutions ont ensuite été filtrées avec une membrane en cellulose et en Nylon (0,45 µm; VWR International, USA) respectivement pour l'Ibuprofène et le Piroxicam. L'ibuprofène a été dosé par HPLC (Shimadzu LC-2010 HT Liquid Chromatography), la phase mobile de l'ibuprofène est un mélange acétonitrile/eau (60:40) avec un pH de 2,25, une colonne C18 a été utilisée. Le piroxicam a été dosé par spectrophotométrie UV-Vis à 356 nm (UV 1800 Shimadzu).
(§3) La constante de stabilité (K1:1) est utilisée pour comparer l'affinité de principes actifs pour différentes cyclodextrines ou dérivés. La solubilité totale de médicament (St) en solution aqueuse de cyclodextrine sera : [formula]
(§4) So = solubilité intrinsèque du médicament; [CD]1 = concentration totale en cyclodextrine dans le milieu aqueux
(§5) Une parcelle de St rapport [CD] t, selon l'équation (1), donnera une ligne droite avec une pente (K 1:1 So / (1 + K 1:1 So)) et une interception (Sint) égale à So. K 1:1 est calculée à partir de la pente et So : [formula]
Afin de pouvoir faire une comparaison directe entre cyclodextrine monomère et cyclodextrine polymérisée, les diagrammes de solubilité sont présentés en fonction de la concentration rapportée en gramme de monomère de cyclodextrine par litre. Tableau 3 : Solubilité de l'ibuprofène et constantes de complexation en présence des cyclodextrines ou de fractions solubles de polymères de cyclodextrine à 10 et 50 g/L en cyclodextrine. L'utilisation de cyclodextrines sous forme de monomères ne tombe pas sous l'étendue de la protection revendiquée.

[3] = Phase-solubility diagram of piroxicam with cyclodextrins or soluble polymer fractions; settings: calculated from slope and So of the solubility diagram
Experimental: as §1, §2, §3, §4, §5

[4] = Tapped density, Carr compressibility index and flow of the powder; settings: for TAP (Ic^∗): Carr index after 500 taps
Experimental: Densité après tassement et indice de compressibilité de la composition compressible.
L'appareil utilisé est un appareil de tassement (Engelsmann powder tester, PTTD200, Pharma Test Instruments, India) composé d'une éprouvette graduée de 100 mL sur un socle vibrant. Les manipulations ont été réalisées suivant les conditions décrites dans la pharmacopée européenne (1997). Pour chaque poudre, le volume initial avant tassement est mesuré (V0) permettant de calculer la densité p0. Le volume final (Vf) de la poudre est ensuite mesuré après 500 tassements. La densité finale de la poudre après tassement peut ainsi être calculée (pf). On en déduit également l'indice de compressibilité ou Indice de Carr (Ic) donné par la formule suivante : [formula]
Les poudres ayant un indice de Carr inférieur à 20% présentent un bon écoulement.

[5] = Tablet breaking strength (hardness), 5 mm / 100 mg tablets; settings: no active ingredient, no other additive
Source text: La machine à comprimer alternative utilisée était une Korsch (Allemagne) équipé de poinçon plat cylindrique de diamètre 5 mm. Les étapes de compression étaient les suivantes: (1) le remplissage de la matrice par écoulement du mélange, (2) arasage, (3) compression et (4) éjection du comprimé. L'épaisseur moyenne des comprimés est de 3,2 mm.
Cet essai est destiné à déterminer, dans des conditions définies, la résistance à la rupture des comprimés, mesurée par la force nécessaire pour les rompre par écrasement entre deux mâchoires.
L'appareil utilisé (PTB 311E, Pharma test Instruments, Inde) est constitué de deux mâchoires se faisant face, dont l'une se déplace vers l'autre qui est fixe. Les surfaces planes des mâchoires sont perpendiculaires à la direction de déplacement.
Le mode opératoire consistait à mettre en place le comprimé à plat entre les mâchoires, puis, une mâchoire se déplaçait à vitesse constante pour appliquer une force jusqu'à la rupture du comprimé. Cette force maximale est notée et considérée comme la dureté du comprimé. La façon dont un comprimé se fracture quand une force croissante est appliquée varie considérablement selon les diverses caractéristiques des produits.

[6] = Tablet disintegration time in water; settings: 100 mg tablets
Experimental: L'appareil utilisé était un appareil de désintégration manuelle PTZ-S, Pharma Test Instruments (Inde), composé d'un panier porte-tubes, un vase cylindrique bas de 1000 mL destiné à contenir le fluide d'immersion, un agencement thermostatique pour chauffer le fluide entre 35°C et 39°C, et d'un dispositif servant à imprimer au porte-tubes, dans le liquide d'immersion, un mouvement vertical alternatif. Le panier est composé de six tubes transparents verticaux, ouverts à leur extrémité supérieure et fermés à l'extrémité inférieure par une grille, un comprimé était placé dans chacun des six tubes du panier. Le fluide d'immersion était l'eau.
Le temps de désintégration a été déterminé comme le temps nécessaire pour que les comprimés passent à travers les mailles de la grille.

For `OC[C@H]1O[C@@H]2O[C@H]3[C@H](O)[C@@H](O)[C@@H](O[C@H]4[C@H](O)[C@@H](O)[C@@H](O[C@H]5[C@H](O)[C@@H](O)[C@@H](O[C@H]6[C@H](O)[C@@H](O)[C@@H](O[C@H]7[C@H](O)[C@@H](O)[C@@H](O[C@H]8[C@H](O)[C@@H](O)[C@@H](O[C@H]1[C@H](O)[C@H]2O)O[C@@H]8CO)O[C@@H]7CO)O[C@@H]6CO)O[C@@H]5CO)O[C@@H]4CO)O[C@@H]3CO` [βCD, β-cyclodextrine], the “valeur maximale de prise d'eau” value [1] was 0,18 g/g, the “Constante de complexation K1:1” value [2] was 11 M⁻¹ and the “Constante de complexation K1:1” value [3] was 173 M⁻¹. For the same compound, the “TAP (Ic^∗)” value [4] was > 20%, the “TAP (Ic^∗)” value ([4]; listed as CD (monomère)) was 23,1% and the Ecoulement ([4]; powder of βCD polymer fractions) was “Non Libre”. For the same compound, the “Résistance à la rupture” value [5] was 45-50 N and the “Temps de désagrégation” value [6] was > 30 min.
